Here are results for 3 compounds from patent publication US12234232B2, “Aromatic heterocyclic compound with kinase inhibitory activity” (SHANGHAI ENNOVABIO PHARMACEUTICALS CO., LTD., priority 2018, dated 2025).

The target of data set [1] is T1, JAK3 protein (Homo sapiens, UniProt P52333).
T1 construct: purchased Carna Biosciences
T1 sequence (P52333 1-1124): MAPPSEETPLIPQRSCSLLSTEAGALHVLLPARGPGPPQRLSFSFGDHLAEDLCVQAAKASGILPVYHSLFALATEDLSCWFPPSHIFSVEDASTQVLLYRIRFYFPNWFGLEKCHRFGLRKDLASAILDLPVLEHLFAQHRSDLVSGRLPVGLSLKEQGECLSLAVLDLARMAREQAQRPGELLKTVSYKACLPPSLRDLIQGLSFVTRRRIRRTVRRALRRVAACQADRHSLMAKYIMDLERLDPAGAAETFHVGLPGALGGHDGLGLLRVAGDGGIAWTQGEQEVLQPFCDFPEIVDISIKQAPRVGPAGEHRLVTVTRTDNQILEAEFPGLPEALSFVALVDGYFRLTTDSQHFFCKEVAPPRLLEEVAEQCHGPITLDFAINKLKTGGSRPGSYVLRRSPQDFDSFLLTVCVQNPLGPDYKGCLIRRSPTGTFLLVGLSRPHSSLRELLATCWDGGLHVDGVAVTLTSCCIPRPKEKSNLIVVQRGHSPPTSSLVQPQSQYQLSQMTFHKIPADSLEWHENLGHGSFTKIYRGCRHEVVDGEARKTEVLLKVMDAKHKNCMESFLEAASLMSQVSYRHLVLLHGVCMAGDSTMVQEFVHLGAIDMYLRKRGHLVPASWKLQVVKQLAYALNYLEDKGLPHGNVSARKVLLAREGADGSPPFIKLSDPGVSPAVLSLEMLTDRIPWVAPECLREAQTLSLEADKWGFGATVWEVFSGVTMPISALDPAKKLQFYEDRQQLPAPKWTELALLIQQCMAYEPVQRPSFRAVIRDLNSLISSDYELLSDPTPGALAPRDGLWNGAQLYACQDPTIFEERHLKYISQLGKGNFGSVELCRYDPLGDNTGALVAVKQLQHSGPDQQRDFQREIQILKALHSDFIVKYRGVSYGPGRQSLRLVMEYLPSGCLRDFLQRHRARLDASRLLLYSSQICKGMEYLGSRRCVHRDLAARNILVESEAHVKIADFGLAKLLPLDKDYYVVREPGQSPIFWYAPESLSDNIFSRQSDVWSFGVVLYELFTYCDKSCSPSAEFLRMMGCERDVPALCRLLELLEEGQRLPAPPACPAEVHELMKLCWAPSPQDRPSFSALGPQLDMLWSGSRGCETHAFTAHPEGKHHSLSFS
Kind of data set: In vitro JAK3 kinase activity assay (HTRF kinEASE TK). It is filed as biochemical. The conditions noted are these: 0.75 μM ATP, 25 minutes, room temperature; read-out: IC50 JAK3 (enzyme activity assay). How it is done: (§1) Recombinant human JAK1 protein was purchased from Thermo Fisher. JAK2 and JAK3 proteins were purchased from Carna Biosciences. HTRF kinEASE TK kit was purchased from Cisbio Bioassays. BioTek microplate reader Synergy Neo 2 was used to read the plate.
(§2) The test compounds were of 4-fold serial dilution, and the final concentration ranged from 10 μM to 0.04 nM in duplicates for each concentration. The concentration of DMSO in the reaction system was 1%.
The reaction included […] JAK 3 protein kinase, 1 μM TK Substrate-biotin peptide substrate, 0.75 μM ATP, 1× enzymatic buffer, 5 mM MgCl2, and 1 mM DTT. The detection plate was White Proxiplate 384-Plus plate (PerkinElmer), and the mixture (10 μl) was reacted at room temperature for 25 minutes.
(§3) Reaction detection: 10 μl of detection reagent was added to the reaction plate containing final concentration of 0.125 μM of SA-XL665 and 5 μl 1×TK-Antibody. The mixture was incubated overnight at room temperature. The plate was read using Synergy Neo 2.
(§4) Data analysis: 665/620 Ratio was converted into inhibition rate (%) through the following formula: inhibition rate (%)=(Ratiomax−Ratiotest)/(Ratiomax−Ratiomin)×100%. Ratiomax is a positive control without detection compound, Ratiomin is a negative control without detection compound and kinase, Ratiotest is the detection value of each concentration of different compounds. 4 parameter curve fitting was performed to measure the IC50 (nM) values. The details are shown in, Table 1.
(In TR-FRET formats the signal depends on donor and acceptor labels being close together.)

The nature of data set [2]: Mouse pharmacokinetics. It is filed as in vivo. Conditions: CD-1 mice, 5 mg/kg, P.O.; for Cmax / half-life / AUC(0-t): mouse, po, plasma; for AUC(0-t): read-out: AUC0-24 hr. How it is done: Test compound was intravenously (IV) or orally (PO) administrated to CD-1 mice. Blood samples were collected at different time points as indicated below. The concentration of the compounds in the mouse plasma was determined by LC-MS/MS and related parameters were calculated. The details are as follows: the required amount of the test product was taken to prepare a solution of the required concentration for intravenous injection or oral administration. The age of the animals was about 6-8 weeks at the beginning of the dosing experiment. Blood sampling time points are 0.083 h, 0.25 h, 0.5 h, 1 h, 2 h, 4 h, 8 h and 24 h after compound administration. The Phoenix WinNonlin 7.0 software was used to calculate the pharmacokinetic parameters through the blood drug concentration data at different time points.

For data set [3], the target named is T2, JAK1 (Homo sapiens, UniProt P23458). Kind of data set: In vitro JAK1 kinase activity assay (HTRF kinEASE TK). Details: purchased Thermo Fisher. It is filed as biochemical. The conditions noted are these: 1.1 μM ATP, 60 minutes, room temperature; read-out: IC50 JAK1 (enzyme activity assay). The procedure: as §1, §2
The reaction included 0.5 ng/μl JAK 1 protein kinase, 1 μM TK Substrate-biotin peptide substrate, 1.1 μM ATP, 1× enzymatic buffer, 5 mM MgCl2, 1 mM MnCl2, 1 mM DTT, and 2.5 nM SEB. The detection plate was White Proxiplate 384-Plus plate (PerkinElmer), and the mixture (10 μl) was reacted at room temperature for 60 minutes.
as §3, §4

Data set [4] concerns the target T3, JAK2 (Homo sapiens, UniProt O60674). Kind of data set: In vitro JAK2 kinase activity assay (HTRF kinEASE TK). It is filed as biochemical. The conditions noted are these: 2.7 μM ATP, 25 minutes, room temperature; read-out: IC50 JAK2 (enzyme activity assay). Details: purchased Carna Biosciences. The procedure: as §1, §2
The reaction included 0.001 ng/μl JAK 2 protein kinase, 1 μM TK Substrate-biotin peptide substrate, 2.7 μM ATP, 1× enzymatic buffer, 5 mM MgCl2, and 1 mM DTT. The detection plate was White Proxiplate 384-Plus plate (PerkinElmer), and the mixture (10 μl) was reacted at room temperature for 25 minutes.
as §3, §4

Data set [5] deals with T2, JAK1. Put plainly: Cellular JAK1 activity assay: IL-6-stimulated STAT3 phosphorylation in TF-1 cells. It is filed as cell-based. Also on record: endogenous in cells; host or cells: TF-1 cells (ATCC). Conditions: IL-6 (30 ng/mL), pSTAT3, read-out: IC50 Cell JAK1. The procedure:
(§5) In TF-1 cells, IL-6 stimulation leads to phosphorylation of STAT3 through JAK1, while EPO stimulants phosphorylation of STAT5 via JAK2.
(§6) TF-1 cells were obtained from American Type Culture Collection (ATCC). TF-1 cells were starved overnight (cell density was 100,000 cells/well at plating) in OptiMEM medium without phenol red containing 0.5% fetal bovine serum (FBS), 0.1 mM non-essential amino acids (NEAA), 1 mM sodium pyruvate at 37° C. The compound was serially diluted in DMSO, added to TF-1 cells and incubated at 37° C. for 20 minutes. The final concentration of DMSO was 0.2%. Then, human recombinant cytokine IL-6 (30 ng/mL) or EPO (10 U/mL) was added to the wells containing TF-1 cells. After the cell plate was incubated for 30 minutes, cells were lysed, and the phosphorylation of STAT3 (IL-6) or STAT5 (EPO) in the cell lysate (pSTAT3/total STAT3 Elisa Kit: CST #7300C/CST #7305C; pSTAT5 and total STAT5 Elisa Kit: Abcam #ab205715) was measured. The IC50 value was determined as the concentration of the compound required to inhibit STAT phosphorylation by 50% relative to the measured DMSO control.

Data set [6] concerns the target T3, JAK2. Kind of data set: Cellular JAK2 activity assay: EPO-stimulated STAT5 phosphorylation in TF-1 cells. The conditions noted are these: EPO (10 U/mL), pSTAT5, read-out: IC50 Cell JAK2. Also on record: endogenous in cells; host or cells: TF-1 cells (ATCC). It is filed as cell-based. How it is done:
as §5, §6

T2 sequence (P23458 whole entry): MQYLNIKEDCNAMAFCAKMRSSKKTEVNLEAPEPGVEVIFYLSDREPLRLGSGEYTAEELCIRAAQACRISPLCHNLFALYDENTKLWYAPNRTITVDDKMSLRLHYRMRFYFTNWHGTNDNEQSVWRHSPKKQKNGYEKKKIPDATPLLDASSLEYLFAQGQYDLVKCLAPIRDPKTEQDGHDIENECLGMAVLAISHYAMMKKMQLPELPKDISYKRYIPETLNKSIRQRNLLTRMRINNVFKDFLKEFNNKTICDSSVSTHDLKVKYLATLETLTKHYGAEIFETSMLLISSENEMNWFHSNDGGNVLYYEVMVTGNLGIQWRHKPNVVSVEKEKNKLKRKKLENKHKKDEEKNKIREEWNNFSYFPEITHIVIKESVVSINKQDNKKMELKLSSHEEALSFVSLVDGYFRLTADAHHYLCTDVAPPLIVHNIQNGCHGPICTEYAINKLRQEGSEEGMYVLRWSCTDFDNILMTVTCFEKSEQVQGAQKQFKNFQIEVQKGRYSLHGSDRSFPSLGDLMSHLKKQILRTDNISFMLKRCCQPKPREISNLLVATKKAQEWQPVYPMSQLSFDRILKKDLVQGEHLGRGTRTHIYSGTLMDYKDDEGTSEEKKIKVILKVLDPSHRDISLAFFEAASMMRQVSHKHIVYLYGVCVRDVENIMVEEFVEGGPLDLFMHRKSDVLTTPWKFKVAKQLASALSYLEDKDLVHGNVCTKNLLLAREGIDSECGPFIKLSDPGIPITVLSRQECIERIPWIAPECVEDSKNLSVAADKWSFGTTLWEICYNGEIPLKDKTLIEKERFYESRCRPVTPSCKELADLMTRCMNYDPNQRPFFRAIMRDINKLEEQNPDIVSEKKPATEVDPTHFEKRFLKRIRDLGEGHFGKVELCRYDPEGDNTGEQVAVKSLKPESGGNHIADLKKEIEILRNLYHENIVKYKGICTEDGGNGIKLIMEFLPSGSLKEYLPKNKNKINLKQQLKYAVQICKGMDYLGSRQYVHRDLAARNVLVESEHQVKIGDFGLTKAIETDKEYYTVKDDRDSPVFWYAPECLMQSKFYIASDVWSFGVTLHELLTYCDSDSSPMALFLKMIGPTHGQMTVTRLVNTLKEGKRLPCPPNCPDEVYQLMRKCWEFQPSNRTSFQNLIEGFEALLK
T3 sequence (O60674 whole entry): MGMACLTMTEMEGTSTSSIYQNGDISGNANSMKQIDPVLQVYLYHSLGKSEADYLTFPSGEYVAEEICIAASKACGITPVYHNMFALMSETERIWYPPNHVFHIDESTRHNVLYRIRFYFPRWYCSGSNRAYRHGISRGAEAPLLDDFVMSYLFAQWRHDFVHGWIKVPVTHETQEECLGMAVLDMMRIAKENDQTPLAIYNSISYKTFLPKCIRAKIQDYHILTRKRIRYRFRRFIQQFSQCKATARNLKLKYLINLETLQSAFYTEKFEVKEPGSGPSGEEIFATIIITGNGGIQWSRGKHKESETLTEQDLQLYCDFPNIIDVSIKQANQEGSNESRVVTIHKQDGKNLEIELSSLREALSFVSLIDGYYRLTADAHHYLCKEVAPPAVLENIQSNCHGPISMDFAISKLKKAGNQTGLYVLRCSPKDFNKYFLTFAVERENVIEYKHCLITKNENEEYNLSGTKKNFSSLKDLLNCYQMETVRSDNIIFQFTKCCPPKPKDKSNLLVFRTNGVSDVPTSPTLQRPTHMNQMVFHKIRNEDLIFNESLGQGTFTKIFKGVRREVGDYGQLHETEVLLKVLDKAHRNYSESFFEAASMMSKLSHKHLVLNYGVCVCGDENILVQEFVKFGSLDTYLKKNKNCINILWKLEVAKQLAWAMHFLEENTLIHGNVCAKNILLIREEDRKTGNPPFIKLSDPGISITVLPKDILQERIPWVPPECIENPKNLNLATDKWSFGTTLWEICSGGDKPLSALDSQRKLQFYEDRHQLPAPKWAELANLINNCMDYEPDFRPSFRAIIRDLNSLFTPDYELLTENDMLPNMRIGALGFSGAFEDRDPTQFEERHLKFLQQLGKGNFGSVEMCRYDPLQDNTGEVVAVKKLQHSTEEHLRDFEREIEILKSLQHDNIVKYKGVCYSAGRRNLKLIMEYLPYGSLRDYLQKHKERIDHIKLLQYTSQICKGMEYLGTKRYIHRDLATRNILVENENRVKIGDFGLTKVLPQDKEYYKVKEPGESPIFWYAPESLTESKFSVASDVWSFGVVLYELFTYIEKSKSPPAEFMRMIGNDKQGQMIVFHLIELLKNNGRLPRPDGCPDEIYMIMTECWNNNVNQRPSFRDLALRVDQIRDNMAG

As usually defined, the IC50 is the midpoint of a concentration-inhibition curve. By Cmax is commonly meant the highest concentration seen after dosing. Broadly, the half-life is how long it takes for the measured level to halve. Regarding `CCC(C(=O)Nc1nccc2c(-c3nc(Nc4cccc(S(C)(=O)=O)c4F)ncc3C)c[nH]c12)N1CCN(C)CC1` (stereo in doubt) [Example 21, (R)—N-(3-(2-((2-Fluoro-3-(methylsulfonyl)phenyl)amino)-5-methylpyrimidin-4-yl)-1H-pyrrolo[2,3-c]pyridin-7-yl)-2-(4-methylpiperazin-1-yl)butanamide], the concentration for half-maximal inhibition (IC50) is 500 to 10000 nM in data set [1]; less than 5 nM in data set [3]; 100 to 10000 nM in data set [4]; less than 100 nM in data set [5]; more than 20000 nM in data set [6]. Moreover, the F in data set [2] was 97.1%. This compound also displayed a Cmax in data set [2] of 264 ng/mL. The compound also had a half-life in data set [2] of 2.61 h. Besides, the AUC(0-t) in data set [2] is 1680 ng·h/mL.
As for `CC[C@H](C(=O)Nc1nccc2c(-c3nc(Nc4cccc(S(C)(=O)=O)c4F)ncc3C)c[nH]c12)N1CC2CCC(C1)N2C` [Example 25, (R)—N-(3-(2-((2-Fluoro-3-(methylsulfonyl)phenyl)amino)-5-methylpyrimidin-4-yl)-1H-pyrrolo[2,3-c]pyridin-7-yl)-2-(8-methyl-3,8-diazabicyclo[3.2.1]octane-3-yl)butanamide], the IC50 was 500 to 10000 nM in data set [1]; less than 5 nM in data set [3]; less than 100 nM in data set [4]; 100 to 1000 nM in data set [5]; more than 20000 nM in data set [6]. For the same compound, the F in data set [2] was 66.1%. For the same compound, the peak concentration (Cmax) in data set [2] was found to be 155 ng/mL. This compound gave a half-life in data set [2] of 3.57 h. In addition, in data set [2], the AUC(0-t) was 946 ng·h/mL.
Turning to `Cc1cnc(Nc2cccc(S(C)(=O)=O)c2F)nc1-c1c[nH]c2c(NC(=O)NC(C)C)ncnc12` [Example 33], the IC50 is less than 500 nM in data set [1]; 5 to 50 nM in data set [3]; 100 to 10000 nM in data set [4]; more than 1000 nM in data set [5]; more than 20000 nM in data set [6].
